The structures appear in SMILES notation.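 Compound exposure: 48 hours, 5 concentrations, 96-well plates. GI50 is the concentration that inhibits growth by half.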 Active and inactive are the calls of the source. No stated cut-off is given here; in the data, active = GI50 up to about 1.1 µM and inactive = higher. Where a SMILES comes first, the peptide text is derived from it. [ ]: non-standard residue; d: D form. The star is where a group is joined. Bn2Val = CC(C)[C@@H](C(=O)*)N(Cc1ccccc1)Cc1ccccc1; NHPiperonyl = c1cc2c(cc1CN*)OCO2; NMeV = CN[C@H](C(=O)O)C(C)C; dNMeA = CN[C@H](C)C(=O)O Bounds are passed on as bounds.

Some test systems named below: ACHN; CCRF-CEM; HCC 2998; HCT-116; Hs-578T; IGROV-1; LOX IMVI; M14; MDA-MB-231; Malme-3M; NCI-H23; NCI-H460; NCI/ADR-RES; OVCAR-3; PC-3; RPMI-8226; SF-295; SK-MEL-2; UACC-257.
Common to all, as to experiment: NCI anticancer screen, dose series, 48 h

For the compound `CC12CCC(C(=O)O1)C(C)(C)O2` (stereo not given), the GI50 with ACHN, with CCRF-CEM, with HCC 2998, with HCT-116, in the experiment with Hs-578T and in the experiment on IGROV-1 was > 100 µM (inactive) in each case. Besides, the GI50 in the experiment on LOX IMVI, in the experiment on M14, in the experiment with MDA-MB-231, with Malme-3M, with NCI-H23 and with NCI-H460 was > 100 µM (inactive) in each case. The GI50 in the experiment on NCI/ADR-RES, in the experiment on OVCAR-3, in the experiment on PC-3, with RPMI-8226, with SF-295 and in the experiment on SK-MEL-2 was > 100 µM (inactive) throughout. The GI50 in the experiment with UACC-257 is > 100 µM (inactive).

As to `O=[N+]([O-])/C=C/c1cn(CCCCCCCCCCCCn2cc(/C=C/[N+](=O)[O-])c3ccccc32)c2ccccc12`, the GI50 with ACHN, with CCRF-CEM, in the experiment on HCC 2998, in the experiment on HCT-116, in the experiment with Hs-578T and in the experiment with IGROV-1 was > 100 µM (inactive) in each case. Besides, the GI50 in the experiment on LOX IMVI, with M14, with MDA-MB-231, in the experiment with Malme-3M, with NCI-H23 and in the experiment with NCI-H460 was > 100 µM (inactive) in each case. Moreover, the GI50 in the experiment with NCI/ADR-RES, in the experiment with OVCAR-3, in the experiment with PC-3, in the experiment with RPMI-8226, in the experiment on SK-MEL-2 and with UACC-257 was > 100 µM (inactive) throughout.

`S=C(c1c[nH]c2ccccc12)N1CCN(Cc2ccccc2)CC1`: the GI50 in the experiment with ACHN is 25.5 µM (inactive); with CCRF-CEM, 27.2 µM (inactive); with HCT-116, 15.7 µM (inactive); in the experiment with Hs-578T it was 17.4 µM (inactive); in the experiment with IGROV-1, 12.7 µM (inactive); in the experiment with LOX IMVI, 15.7 µM (inactive). Also, the GI50 is 14 µM (inactive) in the experiment on M14; 17 µM (inactive) in the experiment with MDA-MB-231; 19.5 µM (inactive) in the experiment with Malme-3M; 19.3 µM (inactive) in the experiment with NCI-H23; 25.2 µM (inactive) in the experiment on NCI-H460; 17 µM (inactive) with NCI/ADR-RES. In addition, the GI50 with OVCAR-3 was 14.4 µM (inactive); with PC-3, 15.7 µM (inactive); in the experiment with RPMI-8226, 13 µM (inactive); with SF-295 it was 14.8 µM (inactive); in the experiment on SK-MEL-2 it was 18.9 µM (inactive); in the experiment with UACC-257, 20.7 µM (inactive).

`O=C1C2c3[nH]c4ccccc4c3C3CCCCCC3C2C(=O)N1c1ccccc1` (stereo not given): the GI50 with ACHN was 39.6 µM (inactive); in the experiment with CCRF-CEM, 9.57 µM (inactive); in the experiment with HCC 2998 it was > 56.1 µM (inactive); in the experiment with HCT-116, 11.2 µM (inactive); with IGROV-1 it was 21.8 µM (inactive); in the experiment on LOX IMVI it was 14.9 µM (inactive). Further, the GI50 in the experiment with M14 is 15.9 µM (inactive); with Malme-3M it was 9.31 µM (inactive); in the experiment on NCI-H23, > 49.8 µM (inactive); in the experiment with NCI-H460, 11.3 µM (inactive); in the experiment with OVCAR-3 it was 16.3 µM (inactive); in the experiment with RPMI-8226 it was > 100 µM (inactive). Further, the figures for the GI50 with SF-295, in the experiment on SK-MEL-2 and in the experiment with UACC-257 were 11 µM (inactive), 22.9 µM (inactive) and 30.7 µM (inactive), respectively.

Regarding `CCCNCC(=O)O[C@]1(CC)C(=O)OCc2c1cc1n(c2=O)Cc2cc3ccccc3nc2-1`, the GI50 in the experiment on ACHN was < 0.01 µM (active); with CCRF-CEM, < 0.01 µM (active); in the experiment with HCC 2998 it was 0.661 µM (active); with HCT-116 it was 0.164 µM (active); with IGROV-1 it was 0.325 µM (active); in the experiment on LOX IMVI, 0.0134 µM (active). For the same compound, the GI50 in the experiment on M14 is 0.0681 µM (active); in the experiment with Malme-3M, 0.334 µM (active); in the experiment with NCI-H23, 0.0149 µM (active); in the experiment with NCI-H460, < 0.01 µM (active); in the experiment on OVCAR-3, 0.457 µM (active); in the experiment with RPMI-8226, 0.0498 µM (active). Further, the GI50 with SF-295 is < 0.01 µM (active); with SK-MEL-2, 1.13 µM (inactive); with UACC-257, 0.163 µM (active).

With `CCCCCCCCCCCC[N+]12CC[N+](CCN)(CC1)CC2`, the GI50 in the experiment on ACHN is > 100 µM (inactive); with CCRF-CEM it was 73.6 µM (inactive); in the experiment with HCC 2998, 35 µM (inactive); with HCT-116 it was > 100 µM (inactive); with IGROV-1, 10.8 µM (inactive); in the experiment on LOX IMVI, 37.8 µM (inactive). Also, the GI50 in the experiment with M14 is > 100 µM (inactive); in the experiment with Malme-3M, > 100 µM (inactive); in the experiment with NCI-H23, 51.6 µM (inactive); with NCI-H460 it was 29.2 µM (inactive); in the experiment with OVCAR-3, > 100 µM (inactive); with RPMI-8226 it was 28.2 µM (inactive). Moreover, the GI50 with SF-295 was 51.8 µM (inactive); in the experiment on SK-MEL-2, > 100 µM (inactive); with UACC-257, > 100 µM (inactive).

For `C/C(=N/NC(=S)N1CCCCC1)c1cccc(/C(C)=N\NC(=S)N2CCCCC2)n1`, the GI50 in the experiment on ACHN was 1.46 µM (inactive); with CCRF-CEM it was 3 µM (inactive); in the experiment on HCC 2998 it was 2.33 µM (inactive); in the experiment on HCT-116 it was 1.74 µM (inactive); with Hs-578T, 2.38 µM (inactive); with IGROV-1 it was 1.94 µM (inactive). In addition, the GI50 in the experiment with LOX IMVI is 2.07 µM (inactive); in the experiment with M14, 1.94 µM (inactive); in the experiment on MDA-MB-231 it was 1.31 µM (inactive); in the experiment on Malme-3M, 2.29 µM (inactive); in the experiment on NCI-H23, 3.93 µM (inactive); with NCI-H460, 1.89 µM (inactive). Further, the GI50 was 2.06 µM (inactive) in the experiment with NCI/ADR-RES; 2.21 µM (inactive) in the experiment on OVCAR-3; 1.65 µM (inactive) in the experiment with PC-3; 2.3 µM (inactive) with RPMI-8226; 1.95 µM (inactive) in the experiment on SF-295; 2.1 µM (inactive) in the experiment on SK-MEL-2. Moreover, in the experiment with UACC-257, the GI50 is 2.85 µM (inactive).

For the compound `CC(C)(C)CNC(=O)NCn1cc(-c2ccccc2)nn1`, the GI50 with ACHN, in the experiment with CCRF-CEM, with HCC 2998, with HCT-116, with IGROV-1 and with LOX IMVI was > 100 µM (inactive) each time. Moreover, the GI50 with M14, in the experiment with MDA-MB-231, with Malme-3M, in the experiment on NCI-H23, in the experiment on NCI-H460 and with NCI/ADR-RES was > 100 µM (inactive) throughout. In addition, the GI50 in the experiment on PC-3, in the experiment with RPMI-8226, in the experiment with SF-295, in the experiment with SK-MEL-2 and with UACC-257 was > 100 µM (inactive) in each case.

On to `COC1=CC(=O)C2C(C1=O)C(c1ccc(OC)c(OC)c1)[C@H]2C` (stereo not given in full), for which the GI50 in the experiment on ACHN is 18.7 µM (inactive); with CCRF-CEM it was 22.6 µM (inactive); in the experiment with HCC 2998 it was > 100 µM (inactive); with HCT-116, 18 µM (inactive); with IGROV-1 it was > 100 µM (inactive); with LOX IMVI it was 22.9 µM (inactive). Also, the GI50 is 19 µM (inactive) in the experiment with M14; 19.6 µM (inactive) in the experiment with Malme-3M; 19.9 µM (inactive) in the experiment with NCI-H23; > 100 µM (inactive) in the experiment with NCI-H460; 19.6 µM (inactive) with OVCAR-3; 14.6 µM (inactive) in the experiment with RPMI-8226. The values for the GI50 with SF-295, with SK-MEL-2 and with UACC-257 were > 100 µM (inactive), > 100 µM (inactive) and 18.6 µM (inactive), respectively.

For the compound `CC(C)[C@H](NC(=O)[C@H](C(C)C)N(Cc1ccccc1)Cc1ccccc1)C(=O)N(C)[C@H](C(=O)N1CCC[C@H]1C(=O)N(C)[C@H](C)C(=O)NCc1ccc2c(c1)OCO2)C(C)C` (Bn2Val-V[NMeV]P[dNMeA]-NHPiperonyl), the GI50 with ACHN is 8.11 µM (inactive); in the experiment with CCRF-CEM, 2.56 µM (inactive); in the experiment with HCC 2998, 3.23 µM (inactive); with HCT-116, 3.48 µM (inactive); with Hs-578T it was 39.1 µM (inactive); in the experiment with IGROV-1, 3.95 µM (inactive). Further, the GI50 with LOX IMVI is 5.9 µM (inactive); in the experiment on M14, 25.5 µM (inactive); in the experiment with MDA-MB-231, 6.56 µM (inactive); in the experiment with Malme-3M, 21.9 µM (inactive); in the experiment on NCI-H23, 16.8 µM (inactive); in the experiment on NCI-H460, 3.93 µM (inactive). For the same compound, the GI50 was 2.91 µM (inactive) in the experiment with NCI/ADR-RES; 5.01 µM (inactive) in the experiment with OVCAR-3; 3.35 µM (inactive) in the experiment on PC-3; 1.99 µM (inactive) with RPMI-8226; 4.94 µM (inactive) in the experiment with SF-295; 5.97 µM (inactive) in the experiment with SK-MEL-2. In addition, the GI50 with UACC-257 is 5.56 µM (inactive).

`CCOc1ccc(/C=C/c2cc(OC)c(OC)c(OC)c2)cc1`: the GI50 with ACHN is 1.56 µM (inactive); with CCRF-CEM, 1.86 µM (inactive); in the experiment with HCC 2998, 1.14 µM (inactive); with HCT-116, 0.561 µM (active); in the experiment on IGROV-1 it was 2.19 µM (inactive); with LOX IMVI it was 1.59 µM (inactive). In addition, the GI50 is 0.841 µM (active) in the experiment on M14; 0.893 µM (active) in the experiment on Malme-3M; 2.92 µM (inactive) in the experiment on NCI-H23; 1.05 µM (active) in the experiment with NCI-H460; 0.596 µM (active) with OVCAR-3; 0.601 µM (active) in the experiment with RPMI-8226. In addition, the GI50 was 0.346 µM (active) in the experiment on SF-295, 1.23 µM (inactive) in the experiment on SK-MEL-2 and 0.658 µM (active) in the experiment with UACC-257.
